Data from patent publication US8742110B2, “Spiroxazolidinone compounds” (Merck Sharp & Dohme Corp., priority 2010, dated 2014).
pIC50: −log10 of the molar value. Structures can show the parent of a compound that is named as a salt. Blank lines part the entries; values can stand above or below the molecule they belong to.

Target: SSTR5 (Homo sapiens (Human), UniProt P35346)
Assay: SSTR5 binding assay
Conditions: CHO-K1 membranes expressing cloned human SSTR5
Method: The receptor-ligand binding assays of all 5 subtype of SSTRs were performed with membranes isolated from Chinese hamster ovary (CHO)-K1 cells stably expressing the cloned human somatostatin receptors in 96-well format as previous reported.
The stable cell lines for SSTR1-SSTR5 were developed by stably transfecting with DNA for all five SSTRs using Lipofectamine. […] The assay buffer consisted of 50 mM TrisHCl (pH 7.8) with 1 mM EGTA, […] MgCl2, leupeptin (10 μg/mL), pepstatin (10 μg/mL), bacitracin (200 μg/mL), and aprotinin (0.5 μg/mL). CHO-K1 cell membranes, radiolabeled somatostatin, and unlabeled test compounds were resuspended or diluted in this assay buffer. Unlabeled test compounds were examined over a range of concentrations from 0.01 nM to 10,000 nM.
Compounds exemplified were tested in the SSTR5 binding assay.

Chain of SSTR5 (P35346 whole entry): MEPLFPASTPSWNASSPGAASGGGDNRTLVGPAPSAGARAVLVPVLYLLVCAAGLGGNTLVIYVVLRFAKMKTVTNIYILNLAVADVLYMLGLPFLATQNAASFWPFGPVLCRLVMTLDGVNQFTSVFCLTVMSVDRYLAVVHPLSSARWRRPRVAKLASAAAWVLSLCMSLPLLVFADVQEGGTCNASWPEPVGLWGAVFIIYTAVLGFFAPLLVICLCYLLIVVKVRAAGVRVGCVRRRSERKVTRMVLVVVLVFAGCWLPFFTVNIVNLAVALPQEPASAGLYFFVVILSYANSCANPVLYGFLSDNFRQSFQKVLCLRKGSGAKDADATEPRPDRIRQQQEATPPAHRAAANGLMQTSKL

Structure (SMILES): CCOc1cc(CN2CCC3(CC2)CN(c2ccc(C(=O)O)cc2)C(=O)O3)cc2c(OC)ccc(Cl)c12 [Example 5-7, 4-{8-[(5-Chloro-4-ethoxy-8-methoxynaphthalen-2-yl)methyl]-2-oxo-1-oxa-3,8-diazaspiro[4.5]dec-3-yl}benzoic acid, TFA salt]
pIC50: 9.63

Structure (SMILES): O=C(O)c1ccc(N2CC3(CCN(Cc4nc(-c5ccccc5)oc4-c4ccc(F)c(Cl)c4)CC3)OC2=O)cc1 [Example 6-27, 4-(8-{[5-(3-Chloro-4-fluorophenyl)-2-phenyl-1,3-oxazol-4-yl]methyl}-2-oxo-1-oxa-3,8-diazaspiro[4.5]dec-3-yl)benzoic acid, TFA salt]
pIC50: 6.92

Structure (SMILES): CC1(C)CCOc2c(Cl)cc(CN3CCC4(CC3)CN(c3ccc(C(=O)O)cc3)C(=O)O4)cc21 [Example 5-15, 4-{8-[(8-Chloro-4,4-dimethyl-3,4-dihydro-2H-chromen-6-yl)methyl]-2-oxo-1-oxa-3,8-diazaspiro[4.5]dec-3-yl}benzoic acid, TFA salt]
pIC50: 8.90

Structure (SMILES): Cc1cc(-c2ccc(F)nc2)c(CN2CCC3(CC2)CN(c2ccc(C(=O)O)cc2)C(=O)O3)cc1Cl [Example 4-25, 4-{8-[5-Chloro-2-(6-fluoropyridin-3-yl)-4-methylbenzyl]-2-oxo-1-oxa-3,8-diazaspiro[4.5]dec-3-yl}benzoic acid, TFA salt]
pIC50: 8.88

Structure (SMILES): CC(C)(C)Cn1cc(CN2CCC3(CC2)CN(c2ccc(C(=O)O)cc2)C(=O)O3)c(-c2ccc(F)c(Cl)c2)n1 [Example 1-38, 4-(8-{[3-(3-Chloro-4-fluorophenyl)-1-(2,2-dimethylpropyl)-1H-pyrazol-4-yl]methyl}-2-oxo-1-oxa-3,8-diazaspiro[4.5]dec-3-yl)benzoic acid, TFA salt]
pIC50: 8.28

Structure (SMILES): CCOc1ccc(-c2ccc(F)c(F)c2F)c(CN2CCC3(CC2)CN(c2ccc(C(=O)O)cc2)C(=O)O3)n1 [Example 4-2, 4-(8-{[6-Ethoxy-3-(2,3,4-trifluorophenyl)pyridin-2-yl]methyl}-2-oxo-1-oxa-3,8-diazaspiro[4.5]dec-3-yl)benzoic acid, TFA salt]
pIC50: 7.88

Structure (SMILES): CCOc1ccc(-c2nn(-c3ccccc3)cc2CN2CCC3(CC2)CN(c2ccc(C(=O)O)cc2)C(=O)O3)cc1 [Example 1-12, 4-(8-{[3-(4-Ethoxyphenyl)-1-phenyl-1H-pyrazol-4-yl]methyl}-2-oxo-1-oxa-3,8-diazaspiro[4.5]dec-3-yl)benzoic acid, TFA salt]
pIC50: 8.27

Structure (SMILES): CCOc1nn(C(C)(C)C)cc1CN1CCC2(CC1)CN(c1ccc(C(=O)O)cc1)C(=O)O2 [Example 1-36, 4-{8-[(1-tert-Butyl-3-ethoxy-1H-pyrazol-4-yl)methyl]-2-oxo-1-oxa-3,8-diazaspiro[4.5]dec-3-yl}benzoic acid, TFA salt]
pIC50: 6.29

Structure (SMILES): CCOc1cc(CN2CCC3(CC2)CN(c2cccc(C(=O)O)c2)C(=O)O3)cc(OCC)c1-c1ccc(F)cc1 [Example 3-14, 3-{8-[(2,6-Diethoxy-4′-fluorobiphenyl-4-yl)methyl]-2-oxo-1-oxa-3,8-diazaspiro[4.5]dec-3-yl}benzoic acid, TFA salt]
pIC50: 8.04

Structure (SMILES): CCCn1nc(CN2CCC3(CC2)CN(c2ccc(C(=O)O)cc2)C(=O)O3)c2ccc(C#N)cc21 [Example 6-7, 4-{8-[(6-Cyano-1-propyl-1H-indazol-3-yl)methyl]-2-oxo-1-oxa-3,8-diazaspiro[4.5]dec-3-yl}benzoic acid, TFA salt]
pIC50: 5.92

Structure (SMILES): CCOc1cc(CN2CCC3(CC2)CN(c2ccc(C(=O)O)c(OC)c2)C(=O)O3)c(-c2ccc(F)c(F)c2F)cc1C [Example 4-18, 4-{8-[(4-Ethoxy-2′,3′,4′-trifluoro-5-methylbiphenyl-2-yl)methyl]-2-oxo-1-oxa-3,8-diazaspiro[4.5]dec-3-yl}-2-methoxybenzoic acid, TFA salt]
pIC50: 9.64

Structure (SMILES): Cc1nc2ccccn2c1CN1CCC2(CC1)CN(c1ccc(C(=O)O)cc1)C(=O)O2 [Example 6-38, 4-{8-[(2-Methylimidazo[1,2-a]pyridin-3-yl)methyl]-2-oxo-1-oxa-3,8-diazaspiro[4.5]dec-3-yl}benzoic acid, TFA salt]
pIC50: 5.99

Structure (SMILES): CC1(C)C2CCC(C2)C1n1cc(CN2CCC3(CC2)CN(c2ccc(C(=O)O)cc2)C(=O)O3)c(-c2ccc(F)c(F)c2F)n1 (stereo not shown) [Example 1-25, 4-(8-{[1-(3,3-Dimethylbicyclo[2.2.1]hept-2-yl)-3-(2,3,4-trifluorophenyl)-1H-pyrazol-4-yl]methyl}-2-oxo-1-oxa-3,8-diazaspiro[4.5]dec-3-yl)benzoic acid, TFA salt]
pIC50: 9.13

Structure (SMILES): CCOc1cc(CN2CCC3(CC2)CN(c2ccc(C(=O)O)cc2F)C(=O)O3)c(-c2ccc(F)c(F)c2F)cc1C [Example 4-21, 4-{8-[(4-Ethoxy-2′,3′,4′-trifluoro-5-methylbiphenyl-2-yl)methyl]-2-oxo-1-oxa-3,8-diazaspiro[4.5]dec-3-yl}-3-fluorobenzoic acid, TFA salt]
pIC50: 9.40

Structure (SMILES): Cc1cc(N2CC3(CCN(Cc4cn(C(C)(C)C)nc4-c4cc(F)c(Cl)cc4F)CC3)OC2=O)ccc1C(=O)O [Example 1-11, 4-(8-{[1-tert-Butyl-3-(4-chloro-2,5-difluorophenyl)-1H-pyrazol-4-yl]methyl}-2-oxo-1-oxa-3,8-diazaspiro[4.5]dec-3-yl)-2-methylbenzoic acid, TFA salt]
pIC50: 8.20

Structure (SMILES): CCOc1cc(CN2CCC3(CC2)CN(c2ccc(C(=O)O)cc2F)C(=O)O3)cc(OCC)c1-c1ccc(F)cc1 [Example 3-21, 4-{8-[(2,6-Diethoxy-4′-fluorobiphenyl-4-yl)methyl]-2-oxo-1-oxa-3,8-diazaspiro[4.5]dec-3-yl}-3-fluorobenzoic acid, TFA salt]
pIC50: 9.36

Structure (SMILES): CC(C)(C)n1cc(CN2CCC3(CC2)CN(c2ccc(C(=O)O)cc2)C(=O)O3)c(-c2ccc(F)c(Cl)c2)n1 [Example 1-28, 4-(8-{[1-tert-Butyl-3-(3-chloro-4-fluorophenyl)-1H-pyrazol-4-yl]methyl}-2-oxo-1-oxa-3,8-diazaspiro[4.5]dec-3-yl)benzoic acid, TFA salt]
pIC50: 9.38

Structure (SMILES): CCOc1cc(CN2CCC3(CC2)CN(c2ccc(C(=O)O)cc2)C(=O)O3)cc2ccc(C(F)(F)F)nc12 [Example 5-9, 4-(8-{[8-Ethoxy-2-(trifluoromethyl)quinolin-6-yl]methyl}-2-oxo-1-oxa-3,8-diazaspiro[4.5]dec-3-yl)benzoic acid, TFA salt]
pIC50: 7.95

Structure (SMILES): CCOc1cc(CN2CCC3(CC2)CN(c2ccccc2C(=O)O)C(=O)O3)cc(OCC)c1-c1ccc(F)cc1 [Example 3-3, 2-{8-[(2,6-Diethoxy-4′-fluorobiphenyl-4-yl)methyl]-2-oxo-1-oxa-3,8-diazaspiro[4.5]dec-3-yl}benzoic acid, TFA salt]
pIC50: 6.64

The next lines start with the values.

pIC50: 8.65
Structure (SMILES): CCOc1cc(CN2CCC3(CC2)CN(c2cc(C(=O)O)ccn2)C(=O)O3)cc(OCC)c1-c1ccc(F)cc1 [Example 3-17, 2-{8-[(2,6-Diethoxy-4′-fluorobiphenyl-4-yl)methyl]-2-oxo-1-oxa-3,8-diazaspiro[4.5]dec-3-yl}pyridine-4-carboxylic acid, TFA salt]

pIC50: 6.95
Structure (SMILES): O=C(O)c1ccc(N2CC3(CCN(Cc4nn(Cc5ccc(Cl)cc5)cc4-c4cc(F)c(F)cc4F)CC3)OC2=O)cc1 [Example 2-4, 4-(8-{[1-(4-Chlorobenzyl)-4-(2,4,5-trifluorophenyl)-1H-pyrazol-3-yl]methyl}-2-oxo-1-oxa-3,8-diazaspiro[4.5]dec-3-yl)benzoic acid, TFA salt]

pIC50: 7.34
Structure (SMILES): CC1(C)Cc2cc(CN3CCC4(CC3)CN(c3ccc(C(=O)O)cc3)C(=O)O4)ccc2O1 [Example 5-18, 4-{8-[(2,2-Dimethyl-2,3-dihydro-1-benzofuran-5-yl)methyl]-2-oxo-1-oxa-3,8-diazaspiro[4.5]dec-3-yl}benzoic acid, TFA salt]

pIC50: 7.93
Structure (SMILES): CCCCn1cc(CN2CCC3(CC2)CN(c2ccc(C(=O)O)cc2)C(=O)O3)c2ccc(OC)cc21 [Example 6-21, 4-{8-[(6-Methoxy-1-butyl-1H-indol-3-yl)methyl]-2-oxo-1-oxa-3,8-diazaspiro[4.5]dec-3-yl}benzoic acid, TFA salt]

pIC50: 7.98
Structure (SMILES): O=C(O)c1ccc(N2CC3(CCN(Cc4cnn(C5CCCCC5)c4-c4cc(F)c(F)cc4F)CC3)OC2=O)cc1 [Example 2-8, 4-(8-{[1-Cyclohexyl-5-(2,4,5-trifluorophenyl)-1H-pyrazol-4-yl]methyl}-2-oxo-1-oxa-3,8-diazaspiro[4.5]dec-3-yl)benzoic acid, TFA salt]

pIC50: 8.49
Structure (SMILES): O=C(O)c1ccc(N2CC3(CCN(Cc4cn(-c5cccc6c5OCCO6)nc4-c4ccc(F)c(F)c4F)CC3)OC2=O)cc1 [Example 1-21, 4-(8-{[1-(2,3-Dihydro-1,4-benzodioxin-5-yl)-3-(2,3,4-trifluorophenyl)-1H-pyrazol-4-yl]methyl}-2-oxo-1-oxa-3,8-diazaspiro[4.5]dec-3-yl)benzoic acid, TFA salt]

pIC50: 8.67
Structure (SMILES): CC(C)n1cc(CN2CCC3(CC2)CN(c2ccc(C(=O)O)cc2)C(=O)O3)c(-c2ccc(F)c(F)c2F)n1 [Example 1-17, 4-(2-Oxo-8-{[1-(propan-2-yl)-3-(2,3,4-trifluorophenyl)-1H-pyrazol-4-yl]methyl}-1-oxa-3,8-diazaspiro[4.5]dec-3-yl)benzoic acid, TFA salt]

pIC50: 8.95
Structure (SMILES): Cc1cc(-c2cc(F)c(F)cc2F)c(CN2CCC3(CC2)CN(c2ccc(C(=O)O)cc2)C(=O)O3)cc1Cl [Example 4-24, 4-{8-[(4-Chloro-2′,4′,5′-trifluoro-5-methylbiphenyl-2-yl)methyl]-2-oxo-1-oxa-3,8-diazaspiro[4.5]dec-3-yl}benzoic acid, TFA salt]

pIC50: 6.55
Structure (SMILES): CCCn1cc(-c2ccc(F)c(F)c2F)c(CN2CCC3(CC2)CN(c2ccc(C(=O)O)cc2)C(=O)O3)n1 [Example 2-6, 4-(2-Oxo-8-{[1-propyl-4-(2,3,4-trifluorophenyl)-1H-pyrazol-3-yl]methyl}-1-oxa-3,8-diazaspiro[4.5]dec-3-yl)benzoic acid, TFA salt]
